Columns and labels:
Type in all cases: cell-based
hPPARalpha = biological target: T1, hPPARalpha (Homo sapiens, UniProt Q07869); experiment: Gal4-hPPARalpha transactivation assay in COS-7 cells (luciferase); conditions: for Emax: COS-7, maximal relative activation vs reference, read-out: Gal4-hPPARα(LBD) TOP (% ref); for EC50: Gal4-hPPARα(LBD) transactivation; for Gal4-hPPARα(LBD) TOP (% ref): maximal relative activation vs reference
T1 construct: Gal4-hPPARα(LBD); Gal4 (fusion partner); expressed in transfected cells; host or cells: COS-7 (monkey kidney)
T1 sequence (Q07869 239-466 limits assumed): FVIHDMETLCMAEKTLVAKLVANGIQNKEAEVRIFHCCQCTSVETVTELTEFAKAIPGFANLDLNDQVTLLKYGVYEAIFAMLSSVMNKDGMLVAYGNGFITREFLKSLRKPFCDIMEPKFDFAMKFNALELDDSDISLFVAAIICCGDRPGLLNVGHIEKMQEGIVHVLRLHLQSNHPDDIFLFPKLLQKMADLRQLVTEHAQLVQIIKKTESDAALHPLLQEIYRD
Experimental: (§1) Monkey kidney COS-7 cells were maintained in standard culture conditions (Dulbecco's modified Eagle's minimal medium: DMEM) supplemented with 10% fetal calf serum, 1% sodium pyruvate, 1% essential amino acids and 1% antibiotics at 37° C. in a humidified atmosphere of 5% C02 and 95% air. The medium was changed every 2 days. All tested compounds were dissolved in DMSO. Cells were transfected using 2 μl JetPEI™ (Polyplus transfection)/μg of DNA. Briefly, 40 μg of DNA was transfected in a 225 cm^2 culture flask of adherent COS-7 cells (respecting the 1/50 ratio between the Gal4(RE)_TkpGL3 plasmid and the plasmid coding the nuclear receptor of interest (pGal4-hPPARalpha, pGal4-hPPARgamma, pGal4-hPPARdelta, pGal4-mPPARalpha, pGal4-mPPARgamma and pGal4-mPPARdelta) or of the pGal4phi plasmid (negative control). Cells were enzymatically detached and seeded in 384 well plates at the density of 20,000 cells/well and then incubated for 4 hours at 37° C. The activation was automatically performed, by using the Genesis Freedom 200™ (Tecan), in fresh medium supplemented with 2% of synthetic serum, free of lipids (Ultroser™, Biosepra) supplemented with the tested compounds (compound of interest or reference molecules) or vehicle (DMSO 0.1%). The luciferase activity was measured with the Steady-Glo Luciferase Assay System (Promega, Madison, Wis.). All transactivation experiments were performed at least 2 times. Activation curves were realized using SigmaPlot® (version 7.0 from SPSS Inc.) software and took into account all the experimental points. SimgaPlot® was also used to fit the standard curves and then determine the specific EC50 values, maximum effect versus reference molecules and Hill slope. The Emax effect of each new ligand is represented as the ratio of the maximal induction (plateau) obtained with the new ligand and the induction obtained with the corresponding reference compound. The reference compounds for PPARalpha, PPARgamma and PPARdelta were fenofibrate (100 μM), rosiglitazone (10 μM) and GW501516 (1 μM).

hPPARgamma = biological target: T2, hPPARgamma (Homo sapiens, UniProt P37231); experiment: Gal4-hPPARgamma transactivation assay in COS-7 cells (luciferase); conditions: for Emax: COS-7, maximal relative activation vs reference, read-out: Gal4-hPPARγ(LBD) TOP (% ref); for EC50: Gal4-hPPARγ(LBD) transactivation; for Gal4-hPPARγ(LBD) TOP (% ref): maximal relative activation vs reference
T2 construct: Gal4-hPPARγ(LBD); Gal4 (fusion partner); expressed in transfected cells; host or cells: COS-7 (monkey kidney)
T2 sequence (P37231 238-503 limits assumed): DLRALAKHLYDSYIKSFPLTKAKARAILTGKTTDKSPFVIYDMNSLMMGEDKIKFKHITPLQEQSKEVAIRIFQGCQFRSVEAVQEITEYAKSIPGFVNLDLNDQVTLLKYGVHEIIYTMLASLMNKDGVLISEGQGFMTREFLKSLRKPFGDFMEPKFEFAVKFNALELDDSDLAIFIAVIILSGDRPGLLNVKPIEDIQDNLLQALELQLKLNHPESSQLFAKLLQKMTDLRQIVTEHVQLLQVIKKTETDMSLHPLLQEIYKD
Experimental: as §1

hPPARdelta = biological target: T3, hPPARdelta (Homo sapiens, UniProt Q03181); experiment: Gal4-hPPARdelta transactivation assay in COS-7 cells (luciferase); conditions: for Emax: COS-7, maximal relative activation vs reference, read-out: Gal4-hPPARδ(LBD) TOP (% ref); for EC50: Gal4-hPPARδ(LBD) transactivation; for Gal4-hPPARδ(LBD) TOP (% ref): maximal relative activation vs reference
T3 construct: Gal4-hPPARδ(LBD); Gal4 (fusion partner); expressed in transfected cells; host or cells: COS-7 (monkey kidney)
T3 sequence (Q03181 211-439 limits assumed): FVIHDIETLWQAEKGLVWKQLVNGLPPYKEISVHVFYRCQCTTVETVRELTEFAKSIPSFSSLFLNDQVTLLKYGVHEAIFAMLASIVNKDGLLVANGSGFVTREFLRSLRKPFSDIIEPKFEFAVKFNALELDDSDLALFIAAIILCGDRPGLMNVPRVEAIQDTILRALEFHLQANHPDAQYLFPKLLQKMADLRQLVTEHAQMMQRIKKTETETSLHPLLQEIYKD
Experimental: as §1

Row | SMILES | Emax (hPPARalpha) | EC50 (hPPARalpha) | Emax (hPPARgamma) | EC50 (hPPARgamma) | Emax (hPPARdelta) | EC50 (hPPARdelta) | further results
1 | COC(c1ccc(C(F)(F)F)cc1)C1CC1c1cc(C)c(OC(C)(C)C(=O)O)c(C)c1 (racemic) [Cpd 4-1, 2-(4-(2-(methoxy(4-(trifluoromethyl)phenyl)methyl)cyclopropyl)-2,6-dimethylphenoxy)-2-methylpropanoic acid] | 47% | 64 nM | 84% | 20 nM | 92% | 16 nM | 
2 | COC(c1ccc(OC(F)(F)F)cc1)C1CC1c1ccc(OC(C)(C)C(=O)O)c(Br)c1 (racemic) [Cpd 19-1, 2-(2-bromo-4-(2-(methoxy(4-(trifluoromethoxy)phenyl)methyl)cyclopropyl)phenoxy)-2-methylpropanoic acid] | 53% | 157 nM | 64% | 97 nM | 100% | 26 nM | 
3 | COC(c1ccc(OC(F)(F)F)cc1)C1CC1c1cc(F)c(OC(C)(C)C(=O)O)c(F)c1 (racemic) [Cpd 20-1, 2-(2,6-difluoro-4-(2-(methoxy(4-(trifluoromethoxy)phenyl)methyl)cyclopropyl)phenoxy)-2-methylpropanoic acid] | 50% | 143 nM | 67% | 230 nM | 84% | 87 nM | 
4 | COC(c1ccc(OC(F)(F)F)cc1)C1CC1c1cc(C)c(OC(C)(C)C(=O)O)c(C)c1 (racemic) [Cpd 14-2, 2-(4-(2-(methoxy(4-(trifluoromethoxy)phenyl)methyl)cyclopropyl)-2,6-dimethylphenoxy)-2-methylpropanoic acid] |  |  |  |  |  |  | Gal4-hPPARα(LBD) TOP (% ref) (hPPARalpha; listed as cpd 14-2): 58 % ref; Gal4-hPPARγ(LBD) TOP (% ref) (hPPARgamma; listed as cpd 14-2): 58 % ref; Gal4-hPPARδ(LBD) TOP (% ref) (hPPARdelta; listed as cpd 14-2): 74 % ref
5 | COC(c1ccccc1OC(F)(F)F)C1CC1c1cc(C)c(OC(C)(C)C(=O)O)c(C)c1 (single isomer, unassigned) [Cpd 13-1, 2-(4-(2-(methoxy(2-(trifluoromethyloxy)phenyl)methyl)cyclopropyl)-2,6-dimethylphenoxy)-2-methylpropanoic acid] | 26% | 652 nM | 72% | 72 nM | 59% | 328 nM | 
6 | CCOC(c1ccc(OC(F)(F)F)cc1)C1CC1c1cc(C)c(OC(C)(C)C(=O)O)c(C)c1 (racemic) [Cpd 10-1, 2-(4-(2-(ethoxy(4-(trifluoromethoxy)phenyl)methyl)cyclopropyl)-2,6-dimethylphenoxy)-2-methylpropanoic acid] | 51% | 38 nM | 74% | 95 nM | 90% | 14 nM | 
7 | COC(c1ccccc1OC(F)(F)F)C1CC1c1cc(C)c(OC(C)(C)C(=O)O)c(C)c1 (single isomer, unassigned) [Cpd 13-2, 2-(4-(2-(methoxy(2-(trifluoromethyloxy)phenyl)methyl)cyclopropyl)-2,6-dimethylphenoxy)-2-methylpropanoic acid] |  | 623 nM |  | 9 nM |  | 214 nM | 
8 | COC(c1ccc(OC(F)(F)F)cc1)C1CC1c1ccc(OC(C)(C)C(=O)O)c(C(C)C)c1 (single isomer, unassigned) [Cpd 15-1, 2-(2-isopropyl-4-(2-(methoxy(4-(trifluoromethoxy)phenyl)methyl)cyclopropyl)phenoxy)-2-methylpropanoic acid] | 24% | 449 nM | 66% | 66 nM | 92% | 105 nM | 
9 | COC(c1ccccc1OC(F)(F)F)C1CC1c1cc(C)c(OC(C)(C)C(=O)O)c(C)c1 (racemic) [Cpd 13-2, 2-(4-(2-(methoxy(2-(trifluoromethyloxy)phenyl)methyl)cyclopropyl)-2,6-dimethylphenoxy)-2-methylpropanoic acid] |  |  |  |  |  |  | Gal4-hPPARα(LBD) TOP (% ref) (hPPARalpha): 28 % ref; Gal4-hPPARγ(LBD) TOP (% ref) (hPPARgamma): 71 % ref; Gal4-hPPARδ(LBD) TOP (% ref) (hPPARdelta): 57 % ref
10 | CCCCOC(c1ccc(OC(F)(F)F)cc1)C1CC1c1cc(C)c(OC(C)(C)C(=O)O)c(C)c1 (single isomer, unassigned) [Cpd 5-1, 2-(4-(2-(butyloxy(4-(trifluoromethoxy)phenyl)methyl)cyclopropyl)-2,6-dimethylphenoxy)-2-methylpropanoic acid] | 44% | 47 nM | 84% | 143 nM | 62% | 34 nM | 
11 | COC(c1ccc(OC(F)(F)F)cc1)C1CC1c1cc(C)c(OC(C)(C)C(=O)O)c(C)c1 (stereo not shown) [Cpd 14-2-1, 2-(4-(2-(methoxy(4-(trifluoromethoxy)phenyl)methyl)cyclopropyl)-2,6-dimethylphenoxy)-2-methylpropanoic acid] | 44% |  | 90% | 16 nM |  |  | EC50 (hPPARalpha; listed as cpd 14-2-1): 50 nM; EC50 (hPPARdelta; listed as cpd 14-2-1): 19 nM; Gal4-hPPARδ(LBD) TOP (% ref) (hPPARdelta; listed as cpd 14-2-1): 78 % ref
12 | Cc1cc(C2CC2C(OCc2ccccc2)c2ccc(OC(F)(F)F)cc2)cc(C)c1OC(C)(C)C(=O)O (single isomer, unassigned) [Cpd 11-2, 2-(4-(2-(benzyloxy(4-(trifluoromethoxy)phenyl)methyl)cyclopropyl)-2,6-dimethylphenoxy)-2-methylpropanoic acid] |  | 100 nM |  | 23 nM |  | 122 nM | 
13 | COC(c1ccc(SC(F)(F)F)cc1)C1CC1c1cc(C)c(OC(C)(C)C(=O)O)c(C)c1 (racemic) [Cpd 9-1, 2-(4-(2-(methoxy(4-(trifluoromethylthio)phenyl)methyl)cyclopropyl)-2,6-dimethylphenoxy)-2-methylpropanoic acid] | 50% | 10 nM | 77% | 11 nM | 89% | 14 nM | 
14 | COC(c1ccc(C(F)(F)F)cc1F)C1CC1c1cc(C)c(OC(C)(C)C(=O)O)c(C)c1 (racemic) [Cpd 12-2, 2-(4-(2-(methoxy(2-fluoro-4-(trifluoromethyl)phenyl)methyl)cyclopropyl)-2,6-dimethylphenoxy)-2-methylpropanoic acid] |  |  |  |  |  |  | Gal4-hPPARα(LBD) TOP (% ref) (hPPARalpha): 37 % ref; Gal4-hPPARγ(LBD) TOP (% ref) (hPPARgamma): 85 % ref; Gal4-hPPARδ(LBD) TOP (% ref) (hPPARdelta): 78 % ref
15 | COC(c1ccc(SC)cc1)C1CC1c1cc(C)c(OC(C)(C)C(=O)O)c(C)c1 (single isomer, unassigned) [Cpd 3-2, 2-(4-(2-(methoxy(4-(methylthio)phenyl)methyl)cyclopropyl)-2,6-dimethylphenoxy)-2-methylpropanoic acid] |  | 139 nM |  | 18 nM |  | 169 nM | 
16 | COC(c1ccc(OC(F)(F)F)cc1)C1CC1c1cc(C)c(OC(C)(C)C(=O)O)c(C)c1 (stereo not shown) [Cpd 14-2-2, 2-(4-(2-(methoxy(4-(trifluoromethoxy)phenyl)methyl)cyclopropyl)-2,6-dimethylphenoxy)-2-methylpropanoic acid] |  |  |  |  |  |  | EC50 (hPPARalpha; listed as cpd 14-2-2): 17 nM; Gal4-hPPARγ(LBD) TOP (% ref) (hPPARgamma; listed as cpd 14-2-2): 72 % ref; EC50 (hPPARdelta; listed as cpd 14-2-2): 59 nM; Gal4-hPPARδ(LBD) TOP (% ref) (hPPARdelta; listed as cpd 14-2-2): 57 % ref

Reference: patent publication US9115073B2, “1,3-diphenylpropane derivatives, preparations and uses thereof” (GENFIT, priority 2011, dated 2015)
